The source of these data is patent US11945812B2, “Annulated 2-amino-3-cyano thiophenes and derivatives for the treatment of cancer” (Boehringer Ingelheim International GmbH, priority 2020, dated 2024).

One data set concerns MiaPaCa-2 cells. Put plainly: MiaPaCa-2 CTG proliferation assay (pancreatic cancer). Type of data set: cell-based. The following applies: Homo sapiens, MIA PaCa-2, 120 h; MiaPaCa-2 CTG proliferation, 5 days; read-out: IC50 MiaPACA2. The protocol: MiaPaCa-2 CTG Proliferation Assay (Pancreatic Cancer)
MiaPaCa-2 cells (ATCC® CRM-CRL-1420™) were grown in cell culture flasks (175 cm^2) using DMEM medium supplemented with 10% fetal bovine serum. […] Materials used for the assay were CulturPlate-384, White Opaque 384-well microplate, Sterile and Tissue Culture Treated (Perkin Elmer #6007680), DMEM medium and FBS # SH30071.03 (HyClone).
(§1) The proliferation assays started (day1) with seeding cells in flat bottom 384 well microtiter plates in 90 μL DMEM medium supplemented with 10% FBS at a density of 500 cells/well. Any other luminescence compatible plate format is possible. On day 2, 10 μL dilutions of the test compounds covering a concentration range between app. 0, 1 and 10.000 nM were added to the cells. Cells were incubated for 5 days in a humidified, incubator with 5% CO2 at 37° C. On day 7 100 μl of Cell Titer Glow reagent (Cell titer Glo Luminescent Cat. No. G7571, Promega) were added to each well and incubated for additional 10 min at room temperature (with agitation). Luminescence was measured on a Wallac Victor using standard luminescence read out. IC50 values were calculated using standard Levenburg Marquard algorithms (GraphPad Prism).

The next data set concerns SW837 cells. Kind of data set: SW837 CTG proliferation assay (CRC). In kind it is cell-based. The following applies: Homo sapiens; SW837 CTG proliferation; read-out: IC50 SW837. The protocol:
SW837 CTG Proliferation Assay (CRC)
SW837 cells (ATCC #CCL-235) were grown in cell culture flasks (175 cm^2) using L-15 10% FCS, 1% L-Glu, 1×NEAA and 1×Na-Pyrovat. Cultures were incubated at 37° C. and 0% CO2 in a humidified atmosphere, with medium change or subcultivation 2-3 times a week. Materials used for the assay were CulturPlate-384, White Opaque 384-well Microplate, Sterile and Tissue Culture Treated (Perkin Elmer #6007680), Leibovitz L15 Medium and FBS # SH30071.03 (HyClone).
as §1, with “L-15” for “DMEM medium supplemented with”, “FCS, 1% L-Glu, 1×NEAA and 1× Na-Pyrovat” for “FBS”, “humidified, CO2 controlled (no CO2)” for “humidified,”, “incubator” for “incubator with 5% CO2”, “μL” for “μl”

Data set [1] relates to ERK phosphorylation in NCI-H358_Cas9_SOS2. Put plainly: ERK phosphorylation assay 2 (AlphaLISA SureFire Ultra p-ERK1/2), SOS2 knock-out. The following applies: Homo sapiens, NCI-H358; assay 2 (marked with *); read-out: IC50 H358 pERK. Type of data set: cell-based. From the text:
ERK Phosphorylation Assay
Materials Used for the Assay;
In general terms: In Alpha technology, singlet oxygen from a donor bead excites a nearby acceptor bead.

Data set [2] can be described thus: Plasma protein binding (equilibrium dialysis), mouse plasma. In kind it is in vitro ADME. The following applies: read-out: PPB mouse fu. On the procedure:
Plasma Protein Binding (PPB)
Binding of test compound to plasma was determined using equilibrium dialysis (ED) and quantitative mass spectrometry interfaced with liquid chromatography (LC-MS). In brief, ED was performed with dialysis devices consisting of two chambers separated by a semipermeable membrane with a molecular weight cut-off of 5-10 kg/mol. One chamber was filled with commercially sourced plasma (mouse and human plasma, respectively) or serum (10% FCS in PBS) containing 1-10 μmol/L test compound and the other chamber was filled with phosphate-buffer saline (PBS) with or without dextran. The dialysis chamber was incubated for 3-5 hours at 37° C. After incubation, protein was precipitated from aliquots of each chamber and the concentration of test compound in the supernatant of the plasma-containing compartment (cplasma) and of the buffer-containing compartment (Cbuffer) was determined by LC-MS. The fraction of unbound test compound (not bound to plasma) (fu) was calculated according to the following equation: […]
On the technique in general: Equilibrium dialysis compares concentrations on both sides of a semipermeable membrane.

For orientation: IC50 means the concentration at which inhibition is half-maximal. As to `C=CC(=O)N1CCN(c2cc(O[C@@H](C)[C@@H]3CCCN3C)nc(-c3cc([C@@]4(C)CCCc5sc(N)c(C#N)c54)on3)n2)[C@H](C)C1` [Ib-1], the IC50 with MiaPaCa-2 cells came to 22.6 nM; in the data set with SW837 cells it was 0.67 nM; in data set [1] it was 1.7 nM. In data set [2], the fraction unbound worked out at 0.011.
`C=CC(=O)N1[C@@H](C)CN(c2cc(O[C@@H](C)[C@@H]3CCCN3C)nc(-c3cc([C@@]4(C)CCCc5sc(N)c(C#N)c54)on3)n2)C[C@@H]1C` [Ib-4]: the values for the IC50 (in the data set on MiaPaCa-2 cells; in the data set on SW837 cells; in data set [1]) were 20.1 nM, 0.69 nM and 2.4 nM, respectively. Further, the fraction unbound in data set [2] is 0.007.
`C=CC(=O)N1CCN(c2cc(O[C@@H](C)[C@@H]3CCCN3C)nc(-c3cc([C@@]4(C)CCCc5sc(N)c(C#N)c54)on3)n2)CC12CC2` [Ib-5]: the 50% inhibitory concentration (IC50) in the data set with MiaPaCa-2 cells came to 28 nM; in the data set on SW837 cells it was 15.8 nM; in data set [1], 6.7 nM. In addition, the fraction unbound in data set [2] is 0.004.
In the case of `C=CC(=O)N1CCN(c2cc(O[C@@H](C)[C@@H]3CCCN3C)nc(-c3cc(C4(C)CCCc5sc(N)c(C#N)c54)on3)n2)CC1` (some centres unmarked) [Ib-6], the concentration for half-maximal inhibition (IC50) with MiaPaCa-2 cells was 9 nM; with SW837 cells, below 1 nM; in data set [1], 2 nM. Besides, the fraction unbound in data set [2] is 0.014.
With `C=C(F)C(=O)N1CCN(c2cc(O[C@@H](C)[C@@H]3CCCN3C)nc(-c3cc([C@@]4(C)CCCc5sc(N)c(C#N)c54)on3)n2)[C@H](C)C1` [Ib-10], the IC50 with MiaPaCa-2 cells was 56.8 nM; in the data set on SW837 cells it was 14.9 nM; in data set [1], 32.8 nM. In addition, the fraction unbound in data set [2] was determined as 0.005.
As to `C=C(F)C(=O)N1[C@@H](C)CN(c2cc(O[C@@H](C)[C@@H]3CCCN3C)nc(-c3cc([C@@]4(C)CCCc5sc(N)c(C#N)c54)on3)n2)C[C@@H]1C` [Ib-11], the concentration for half-maximal inhibition (IC50) in the data set on MiaPaCa-2 cells stood at 105 nM; with SW837 cells, 5.63 nM; in data set [1], 44.4 nM. Also, the fraction unbound in data set [2] is 0.003.
As to `COC/C=C/C(=O)N1CCN(c2cc(O[C@@H](C)[C@@H]3CCCN3C)nc(-c3cc([C@@]4(C)CCCc5sc(N)c(C#N)c54)on3)n2)[C@H](C)C1` [Ib-14], the figures for the 50% inhibitory concentration (IC50) (in the data set on MiaPaCa-2 cells; in the data set on SW837 cells; in data set [1]) were 36 nM, 11.3 nM and 12.6 nM, respectively. In data set [2], the fraction unbound is 0.01.
As to `C=CC(=O)N1CCN(c2cc(O[C@@H](C)[C@@H]3CCCN3C)nc(-c3cc([C@@]4(C)CCCc5sc(N)c(C#N)c54)no3)n2)CC12CC2` [Ic-3], the IC50 was determined as 123 nM with MiaPaCa-2 cells, 10.6 nM in the data set with SW837 cells and 12.3 nM in data set [1].
Take `C=CC(=O)N1[C@@H](C)CN(c2cc(O[C@@H](C)[C@@H]3CCCN3C)nc(-c3cc([C@@]4(C)CCCc5sc(N)c(C#N)c54)no3)n2)C[C@@H]1C` [Ic-4]: the IC50 in the data set with MiaPaCa-2 cells was determined as 6.87 nM; in the data set with SW837 cells it was 1.62 nM; in data set [1] it was 3.4 nM. Moreover, the fraction unbound in data set [2] is 0.011.
`C=CC(=O)N1[C@H](C)CN(c2cc(O[C@@H](C)[C@@H]3CCCN3C)nc(-c3cc([C@@]4(C)CCCc5sc(N)c(C#N)c54)no3)n2)C[C@@H]1C` [Ic-5]: the values for the IC50 (in the data set on MiaPaCa-2 cells; in the data set on SW837 cells; in data set [1]) were 47.9 nM, 7.15 nM and 13.1 nM, respectively. Also, in data set [2], the fraction unbound turned out to be 0.003.
Take `C=CC(=O)N1CCC(Oc2cc(N3CCN(C)C[C@@H]3C)nc(-c3cc(C4(C)CCCc5sc(N)c(C#N)c54)no3)n2)CC1` (some centres unmarked) [Ic-7]: the IC50 in the data set with MiaPaCa-2 cells is 332 nM; in the data set on SW837 cells, 44.7 nM; in data set [1] it was 56.8 nM. Further, the fraction unbound in data set [2] came out at 0.001.
For `C=C(F)C(=O)N1[C@@H](C)CN(c2cc(O[C@@H](C)[C@@H]3CCCN3C)nc(-c3cc([C@@]4(C)CCCc5sc(N)c(C#N)c54)no3)n2)C[C@@H]1C` [Ic-8], in that order: 396 nM, 36.6 nM, 134 nM and 0.003.
For `COC/C=C/C(=O)N1CCN(c2cc(O[C@@H](C)[C@@H]3CCCN3C)nc(-c3cc(C4(C)CCCc5sc(N)c(C#N)c54)no3)n2)CC1` (some centres unmarked) [Ic-9], in that order: 332 nM, 124 nM, 46.2 nM and 0.008.
Taken in the same sequence, the figures for `C=CC(=O)N1CCN(c2cc(O[C@@H](C)[C@@H]3CCCN3C)nc(-c3cc([C@@]4(C)CCCc5sc(N)c(C#N)c54)sn3)n2)CC1` [Id-1] were 2.25 nM, 0.2 nM, 0.7 nM and 0.021.
`C=CC(=O)N1[C@H](C)CN(c2cc(O[C@@H](C)[C@@H]3CCCN3C)nc(-c3cc([C@@]4(C)CCCc5sc(N)c(C#N)c54)sn3)n2)C[C@@H]1C` [Id-2]: the IC50 with MiaPaCa-2 cells worked out at 21.3 nM; in the data set with SW837 cells it was 1.09 nM; in data set [1], 5.4 nM. Also, the fraction unbound in data set [2] was determined as 0.003.
Regarding `C=CC(=O)N1[C@@H](C)CN(c2cc(O[C@@H](C)[C@@H]3CCCN3C)nc(-c3cc([C@@]4(C)CCCc5sc(N)c(C#N)c54)sn3)n2)C[C@@H]1C` [Id-4], the half-maximal inhibitory concentration (IC50) with MiaPaCa-2 cells is 15.3 nM; in the data set on SW837 cells it was 0.68 nM; in data set [1] it was 2.2 nM. For the same compound, the fraction unbound in data set [2] worked out at 0.005.
In the case of `C=CC(=O)N1CCN(c2cc(O[C@@H](C)[C@@H]3CCCN3C)nc(-c3cc([C@@]4(C)CCCc5sc(N)c(C#N)c54)sn3)n2)CC12CC2` [Id-5], the results for the IC50 (in the data set on MiaPaCa-2 cells; in the data set with SW837 cells; in data set [1]) were 26.9 nM, 0.8 nM and 3.1 nM, respectively. In data set [2], the fraction unbound is 0.003.
With `C=CC(=O)N1CCC(Oc2cc(O[C@@H](C)[C@@H]3CCCN3C)nc(-c3cc([C@@]4(C)CCCc5sc(N)c(C#N)c54)sn3)n2)CC1` [Id-6], the 50% inhibitory concentration (IC50) turned out to be 13.8 nM in the data set with MiaPaCa-2 cells, 0.35 nM in the data set on SW837 cells and 1.1 nM in data set [1]. The fraction unbound in data set [2] turned out to be 0.003.
